Measured values: the supplement of paper PMC10307832

Key:
Experiment in all cases: relative viability (nuclei count vs DMSO), 5 days (fraction); higher = more cells survive
[1] = compound: N[C@@H]1CCCN(c2c(/C=C3\SC(=O)NC3=O)cccc2-c2ccccc2)C1 [AZD1208] + CCNC(=O)c1noc(-c2cc(C(C)C)c(O)cc2O)c1-c1ccc(CN2CCOCC2)cc1 [Luminespib] (partner 0.01 µM)
Method in brief: (§1)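 Nuclei were stained with Hoechst during a one-step fixation (final 0.05% Triton X-100, 1% formaldehyde, 1 ug/ml Hoechst) carried out 5 days after dosing, then counted on 4× images. The cells, lung cancer lines in 1536-well plates, had been dosed by pin tool the day after seeding with one drug alone or a fixed anchor-drug dose plus five library-drug doses (not always all listed) in √10 steps. Relative viability is the nuclei count in treated wells divided by that in vehicle wells, and each value is the median of duplicate plates.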

[2] = compound: CN1CCN(CC1)C2=CC(=C(C=C2)NC3=NC(=C(S3)C(=O)C4=C(C=CC=C4Cl)Cl)N)OC [XMD14-99] + COc1cccc2cc(-c3nc([C@H]4CC[C@H](C(=O)O)CC4)n4ncnc(N)c34)[nH]c12 [OSI-027] (partner 0.5 µM)
Method in brief: as §1

[3] = compound: CN1CCN(CC1)C2=CC(=C(C=C2)NC3=NC(=C(S3)C(=O)C4=C(C=CC=C4Cl)Cl)N)OC [XMD14-99] + N=C(N)NC(=N)NCCc1ccccc1 [Phenformin] (partner 250 µM)
Method in brief: as §1

[4] = compound: CN1CCN(CC1)C2=CC(=C(C=C2)NC3=NC(=C(S3)C(=O)C4=C(C=CC=C4Cl)Cl)N)OC [XMD14-99] + O=C(c1cc(Cc2n[nH]c(=O)c3ccccc23)ccc1F)N1CCN(C(=O)C2CC2)CC1 [Olaparib] (partner 8 µM)
Method in brief: as §1

UMC-11
relative viability ([1]; first compound 0.08 µM): 0.816
relative viability ([1]; first compound 0.253 µM): 0.894
relative viability ([1]; first compound 0.8 µM): 0.62
relative viability ([1]; first compound 2.53 µM): 0.664
relative viability ([1]; first compound 8 µM): 0.406
relative viability ([2]; first compound 0.08 µM): 0.495
relative viability ([2]; first compound 0.8 µM): 0.46
relative viability ([2]; first compound 2.53 µM): 0.421
relative viability ([2]; first compound 8 µM): 0.359
relative viability ([3]; first compound 0.08 µM): 0.336
relative viability ([3]; first compound 0.8 µM): 0.314
relative viability ([3]; first compound 2.53 µM): 0.319
relative viability ([3]; first compound 8 µM): 0.275
relative viability ([4]; first compound 0.08 µM): 0.363
relative viability ([4]; first compound 0.8 µM): 0.313
relative viability ([4]; first compound 2.53 µM): 0.345
relative viability ([4]; first compound 8 µM): 0.288
